From ChEMBL document CHEMBL3769303, “Discovery of membrane active benzimidazole quinolones-based topoisomerase inhibitors as potential DNA-binding antimicrobial agents” (Eur J Med Chem, 2016)
Values after ≈ are worked out from the molar mass of the structure shown.

What was measured:
Format in all cases: functional
Shigella dysenteriae = experiment: Antibacterial activity against Shigella dysenteriae by micro broth dilution method
Staphylococcus aureus [1] = experiment: Antibacterial activity against methicillin-resistant Staphylococcus aureus N315 by micro broth dilution method
Staphylococcus aureus [2] = experiment: Antibacterial activity against Staphylococcus aureus ATCC 25923 by micro broth dilution method
Micrococcus luteus = experiment: Antibacterial activity against Micrococcus luteus ATCC 4698 by micro broth dilution method; conditions: NCTC 2665
Bacillus spizizenii = experiment: Antibacterial activity against Bacillus subtilis ATCC 6633 by micro broth dilution method
Escherichia coli [3] = experiment: Antibacterial activity against Escherichia coli DH52 by micro broth dilution method
Escherichia coli [4] = experiment: Antibacterial activity against Escherichia coli JM109 by micro broth dilution method
Pseudomonas aeruginosa = experiment: Antibacterial activity against Pseudomonas aeruginosa ATCC 27853 by micro broth dilution method
[5] = Antibacterial activity against Bacillus proteus ATCC 13315 by micro broth dilution method
Salmonella enterica = experiment: Antibacterial activity against Salmonella enterica ATCC 14028 by micro broth dilution method
[6] = Antifungal activity against Candida mycoderma ATCC 9888 after 24 hrs by micro broth dilution method; conditions: Candida vini
Cyberlindnera jadinii = experiment: Antifungal activity against Candida utilis ATCC 9950 after 24 hrs by micro broth dilution method; conditions: Williopsis jadinii, ATCC 9950, 24 h
Aspergillus flavus = experiment: Antifungal activity against Aspergillus flavus ATCC 204304 after 24 hrs by micro broth dilution method; conditions: ATCC 204304, 24 h
Saccharomyces cerevisiae = experiment: Antifungal activity against Saccharomyces cerevisiae ATCC 9763 after 24 hrs by micro broth dilution method; conditions: ATCC 9763, 24 h
Candida albicans = experiment: Antifungal activity against Candida albicans ATCC 10231 after 24 hrs by micro broth dilution method; conditions: ATCC 10231, 24 h

Row | Structure (SMILES) | MIC (Shigella dysenteriae) [µg/mL] | MIC (Staphylococcus aureus [1]) [µg/mL] | MIC (Staphylococcus aureus [2]) [µg/mL] | MIC (Micrococcus luteus) [µg/mL] | MIC (Bacillus spizizenii) [µg/mL] | MIC (Escherichia coli [3]) [µg/mL] | MIC (Escherichia coli [4]) [µg/mL] | MIC (Pseudomonas aeruginosa) [µg/mL] | MIC [5] [µg/mL] | MIC (Salmonella enterica) [µg/mL] | MIC80 [6] [µg/mL] | MIC80 (Cyberlindnera jadinii) [µg/mL] | MIC80 (Aspergillus flavus) [µg/mL] | MIC80 (Saccharomyces cerevisiae) [µg/mL] | MIC80 (Candida albicans) [µg/mL]
1 | CCn1cc(C(=O)O)c(=O)c2cc(F)c(N3CCN(Cc4nc5ccccc5n4CC)CC3)cc21 | 128 (≈ 268 µM) | 8 (≈ 16.8 µM) | 128 (≈ 268 µM) | 4 (≈ 8.38 µM) | 2 (≈ 4.19 µM) | 4 (≈ 8.38 µM) | 32 (≈ 67 µM) | 32 (≈ 67 µM) | 1 (≈ 2.09 µM) | 0.5 (≈ 1.05 µM) | 0.25 (≈ 0.524 µM) | 8 (≈ 16.8 µM) | 32 (≈ 67 µM) | 64 (≈ 134 µM) | 4 (≈ 8.38 µM)
2 | COC(=O)c1cn(C2CC2)c2cc(N3CCN(/C=N\c4nc5ccccc5[nH]4)CC3)c(F)cc2c1=O | 8 (≈ 16.4 µM) | 64 (≈ 131 µM) | 32 (≈ 65.5 µM) | 4 (≈ 8.19 µM) | 2 (≈ 4.09 µM) | 8 (≈ 16.4 µM) | 8 (≈ 16.4 µM) | 2 (≈ 4.09 µM) | 4 (≈ 8.19 µM) | 4 (≈ 8.19 µM) | 16 (≈ 32.8 µM) | 8 (≈ 16.4 µM) | 4 (≈ 8.19 µM) | 2 (≈ 4.09 µM) | 32 (≈ 65.5 µM)
3 | CCCCCCn1c(CN2CCN(c3cc4c(cc3F)c(=O)c(C(=O)O)cn4CC)CC2)nc2ccccc21 | 32 (≈ 60 µM) | 32 (≈ 60 µM) | 256 (≈ 480 µM) | 4 (≈ 7.5 µM) | 16 (≈ 30 µM) | 4 (≈ 7.5 µM) | 64 (≈ 120 µM) | 16 (≈ 30 µM) | 4 (≈ 7.5 µM) | 8 (≈ 15 µM) | 8 (≈ 15 µM) | 32 (≈ 60 µM) | 128 (≈ 240 µM) | 128 (≈ 240 µM) | 16 (≈ 30 µM)
4 | CCn1cc(C(=O)O)c(=O)c2cc(F)c(N3CCN(Cc4nc5ccccc5n4Cc4ccc([N+](=O)[O-])cc4)CC3)cc21 | 4 (≈ 6.84 µM) | 8 (≈ 13.7 µM) | 4 (≈ 6.84 µM) | 4 (≈ 6.84 µM) | 2 (≈ 3.42 µM) | 16 (≈ 27.4 µM) | 8 (≈ 13.7 µM) | 4 (≈ 6.84 µM) | 16 (≈ 27.4 µM) | 4 (≈ 6.84 µM) | 16 (≈ 27.4 µM) | 4 (≈ 6.84 µM) | 8 (≈ 13.7 µM) | 4 (≈ 6.84 µM) | 4 (≈ 6.84 µM)
5 | CCn1cc(C(=O)O)c(=O)c2cc(F)c(N3CCN(Cc4nc5ccccc5n4Cc4ccc(F)cc4)CC3)cc21 | 16 (≈ 28.7 µM) | 16 (≈ 28.7 µM) | 8 (≈ 14.3 µM) | 8 (≈ 14.3 µM) | 8 (≈ 14.3 µM) | 32 (≈ 57.4 µM) | 32 (≈ 57.4 µM) | 8 (≈ 14.3 µM) | 32 (≈ 57.4 µM) | 8 (≈ 14.3 µM) | 32 (≈ 57.4 µM) | 8 (≈ 14.3 µM) | 16 (≈ 28.7 µM) | 8 (≈ 14.3 µM) | 8 (≈ 14.3 µM)
6 | CCn1cc(C(=O)O)c(=O)c2cc(F)c(N3CCN(Cc4nc5ccc(Cl)cc5[nH]4)CC3)cc21 | 1 (≈ 2.07 µM) | 1 (≈ 2.07 µM) | 2 (≈ 4.13 µM) | 1 (≈ 2.07 µM) | 16 (≈ 33.1 µM) | 0.5 (≈ 1.03 µM) | 2 (≈ 4.13 µM) | 1 (≈ 2.07 µM) | 0.5 (≈ 1.03 µM) | 0.5 (≈ 1.03 µM) | 8 (≈ 16.5 µM) | 8 (≈ 16.5 µM) | 2 (≈ 4.13 µM) | 8 (≈ 16.5 µM) | 32 (≈ 66.1 µM)
7 | CCCCCCCCCCCCCCCCCCn1c(CN2CCN(c3cc4c(cc3F)c(=O)c(C(=O)O)cn4CC)CC2)nc2ccccc21 | 256 (≈ 365 µM) | 128 (≈ 182 µM) | 256 (≈ 365 µM) | 128 (≈ 182 µM) | 128 (≈ 182 µM) | 256 (≈ 365 µM) | 256 (≈ 365 µM) | 256 (≈ 365 µM) | 256 (≈ 365 µM) | 256 (≈ 365 µM) | 64 (≈ 91.2 µM) | 64 (≈ 91.2 µM) | 64 (≈ 91.2 µM) | 128 (≈ 182 µM) | 128 (≈ 182 µM)
8 | CCn1cc(C(=O)O)c(=O)c2cc(F)c(N3CCN(CNc4nc5ccccc5[nH]4)CC3)cc21 | 0.5 (≈ 1.08 µM) | 0.5 (≈ 1.08 µM) | 2 (≈ 4.31 µM) | 4 (≈ 8.61 µM) | 8 (≈ 17.2 µM) | 1 (≈ 2.15 µM) | 16 (≈ 34.4 µM) | 1 (≈ 2.15 µM) | 8 (≈ 17.2 µM) | 2 (≈ 4.31 µM) | 1 (≈ 2.15 µM) | 1 (≈ 2.15 µM) | 4 (≈ 8.61 µM) | 8 (≈ 17.2 µM) | 2 (≈ 4.31 µM)
9 | O=C(O)c1cn(C2CC2)c2cc(N3CCN(Cc4nc5ccc(Br)cc5[nH]4)CC3)c(F)cc2c1=O | 16 (≈ 29.6 µM) | 4 (≈ 7.4 µM) | 64 (≈ 118 µM) | 16 (≈ 29.6 µM) | 16 (≈ 29.6 µM) | 8 (≈ 14.8 µM) | 32 (≈ 59.2 µM) | 1 (≈ 1.85 µM) | 8 (≈ 14.8 µM) | 4 (≈ 7.4 µM) | 16 (≈ 29.6 µM) | 4 (≈ 7.4 µM) | 2 (≈ 3.7 µM) | 4 (≈ 7.4 µM) | 2 (≈ 3.7 µM)
10 | O=C(O)c1cn(C2CC2)c2cc(N3CCN(CCc4nc5ccccc5[nH]4)CC3)c(F)cc2c1=O | 0.5 (≈ 1.05 µM) | 4 (≈ 8.41 µM) | 4 (≈ 8.41 µM) | 1 (≈ 2.1 µM) | 128 (≈ 269 µM) | 4 (≈ 8.41 µM) | 2 (≈ 4.21 µM) | 0.5 (≈ 1.05 µM) | 2 (≈ 4.21 µM) | 1 (≈ 2.1 µM) | 2 (≈ 4.21 µM) | 4 (≈ 8.41 µM) | 1 (≈ 2.1 µM) | 1 (≈ 2.1 µM) | 2 (≈ 4.21 µM)
